Where “and” joins values, the source holds several entries; their conditions need not be identical. Identical values can stand only once.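 Grown in 96-well plates, cells were treated for 48 hours with each compound at five concentrations. Insufficient inhibition: endpoint recorded as highest concentration tested. GI50: concentration for 50% inhibition of growth. TGI denotes the concentration required for complete inhibition of growth.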
Key:
Experiment in all cases: NCI tumour cell line growth inhibition, 48 h
HOP-62 NSCLC = test system: HOP-62 NSCLC
UACC-62 melanoma = test system: UACC-62 melanoma
HS 578T breast = test system: HS 578T breast
SR leukemia = test system: SR leukemia
PC-3 prostate = test system: PC-3 prostate
A498 renal = test system: A498 renal
NCI/ADR-RES ovarian = test system: NCI/ADR-RES ovarian
OVCAR-5 ovarian = test system: OVCAR-5 ovarian
SNB-19 CNS = test system: SNB-19 CNS
DLD-1 colon = test system: DLD-1 colon
P388/ADR leukemia = test system: P388/ADR leukemia

Structure (SMILES) | TGI (HOP-62 NSCLC) | TGI (UACC-62 melanoma) | TGI (HS 578T breast) | TGI (SR leukemia) | TGI (PC-3 prostate) | TGI (A498 renal) | TGI (NCI/ADR-RES ovarian) | TGI (OVCAR-5 ovarian) | TGI (SNB-19 CNS) | GI50 (SR leukemia) | GI50 (OVCAR-5 ovarian) | TGI (DLD-1 colon) [µM] | TGI (P388/ADR leukemia) [µM] | GI50 (HOP-62 NSCLC) [µM]
O=C1c2cc(Cl)ccc2NC(=NCCCl)C2CSCN12 (stereo not given) | > 100 µM | > 100 µM | > 100 µM | > 100 µM | > 100 µM | > 100 µM | > 100 µM | > 100 µM | > 100 µM | – | – | – | – | –
Cc1noc(NC2=CC(=O)C(=O)c3ccccc32)c1C | > 100 µM | 22.9 µM | > 100 µM | > 100 µM | > 100 µM | > 100 µM | 21.4 µM | > 100 µM | > 100 µM | – | – | – | – | –
COc1ccc(N2C=Nn3c(nc4sc5c(c4c3=O)CCCC5)C2)cc1 | 13.5 µM | > 100 µM | 9.6 µM | > 100 µM | > 100 µM | 41.8 µM | > 100 µM | > 100 µM | > 100 µM | – | – | – | – | –
C=C1C(=O)O[C@H]2[C@@H](O)[C@H](C)CCC[C@]3(C)O[C@H]3CC[C@@]3(C)O[C@@H]3C[C@@H]12 | 14.3 µM | 8.8 µM | 42 µM | 5.99 µM | 14.5 µM | 14.4 µM | 19 µM | 12.5 µM | 27.7 µM | – | – | – | – | –
COC(=O)[C@H](Cc1c[nH]c2ccccc12)NC(=O)c1ccc(CNC(=O)/C=C/c2cccc(Oc3ccccc3)c2)cc1 | > 100 µM | > 100 µM | > 100 µM | > 100 µM | > 100 µM | > 100 µM | > 100 µM | > 100 µM | > 100 µM | – | – | – | – | –
O=C(O)Cc1ccc2[nH]c(O)c(C3=Nc4ccccc4C3=O)c2c1 | > 100 µM | 85.7 µM | 77.5 µM | 93 µM | > 100 µM | 98.7 µM | > 100 µM | > 100 µM | > 100 µM | – | – | – | – | –
O=C(O)CC1NCc2cc3ccccc3nc21 (stereo not given) | > 100 µM | > 100 µM | > 100 µM | > 100 µM | > 100 µM | > 100 µM | > 100 µM | > 100 µM | > 100 µM | – | – | – | – | –
O=C1CC(c2cccc(Br)c2)n2cccc21 (stereo not given) | > 100 µM | > 100 µM | > 100 µM | > 100 µM | > 100 µM | > 100 µM | > 100 µM | > 100 µM | > 100 µM | – | – | – | – | –
CCOC(=O)c1sc2[n+](c1C)C(=O)/C(=C/c1ccc([N+](=O)[O-])cc1)S2 | 74 µM | 40.3 µM | 67 µM | 57.7 µM | 57.4 µM | > 100 µM | 42.5 µM | > 100 µM | > 100 µM | – | – | – | – | –
CC1OC(OC2C(OC(=O)[C@]34CCC(C)(C)C[C@H]3C3=CC[C@@H]5[C@@]6(C)CC[C@H](OC7OC(C(=O)O)C(O)C(OC8OCC(O)C(O)C8O)C7O)C(C)(C)[C@@H]6CC[C@@]5(C)[C@]3(C)CC4)OCC(O)C2O)C(O)C(OC2OCC(O)C(O)C2O)C1OC1OCC(O)C(OC2OCC(O)C(O)C2O)C1O (stereo not given in full) | 30.7 µM and 32.6 µM | 36.1 µM and 58.1 µM | 37.9 µM and 62.4 µM | 8.95 µM and 26.8 µM | 21.7 µM and 23.1 µM | 4.79 µM and 8.63 µM | 24.4 µM and 67.7 µM | 20.3 µM and 32.4 µM | 23.2 µM and 44.2 µM | 2.83 µM and 11.1 µM | 7.26 µM and 17.7 µM | – | – | –
C=C1C(=O)O[C@@H]2C[C@]3(C)CC[C@]4(C)[C@H](CC[C@@H]5[C@@]6(C)CCC(=O)C(C)(C)[C@@H]6CC[C@]54C)[C@H]3[C@H]12 | 49.2 µM | 32.9 µM | > 78 µM | 36.5 µM | 35.4 µM | 35.3 µM | 66.7 µM | 32.8 µM | > 60.6 µM | – | – | – | – | –
CN(/N=C/c1ccnc2ccccc12)c1ccc(Cl)cc1[N+](=O)[O-] | > 100 µM | > 100 µM | 52.2 µM | > 100 µM | > 100 µM | > 100 µM | > 100 µM | > 100 µM | > 100 µM | – | – | – | – | –
S=C(c1c[nH]c2ccccc12)N1CCN(Cc2ccccc2)CC1 | 33 µM | 33.7 µM | 34.6 µM | 47.9 µM | 30.8 µM | 37.3 µM | 36 µM | 30.5 µM | 35.5 µM | – | – | – | – | –
CC(=O)NC1=C[C@@H]([C@H]2COC(C)(C)O2)OC1=O | > 100 µM | > 100 µM | – | – | – | > 100 µM | > 100 µM | > 100 µM | > 100 µM | – | – | > 100 | > 100 | –
O=[N+]([O-])c1ccc(C=NCC2CCCN3CCCCC23)cc1 (stereo not given) | > 100 µM | > 100 µM | > 100 µM | > 100 µM | > 100 µM | > 100 µM | > 100 µM | > 100 µM | > 100 µM | – | – | – | – | –
Nc1nn2c(nc(N)c3c(N)[nH]nc32)c1N=Nc1ccc(Br)cc1 | > 93 µM | > 100 µM | > 100 µM | > 100 µM | > 100 µM | > 100 µM | > 100 µM | > 96.2 µM | > 92.8 µM | – | – | – | – | –
COc1ccc(C2C3COc4ccccc4C3=NN2c2ccccc2)cc1 (stereo not given) | > 100 µM | > 100 µM | > 100 µM | > 100 µM | > 100 µM | > 100 µM | > 100 µM | > 100 µM | > 100 µM | – | – | – | – | –
Clc1ccc(C2Nc3ccccc3C3=NCCN32)cc1 (stereo not given) | > 100 µM | 32.3 µM | > 100 µM | 59.2 µM | > 100 µM | 63.7 µM | 60.4 µM | > 100 µM | 94.9 µM | – | – | – | – | –
CN(C)CCCn1nc(N)c2nc3cc(Cl)ccc3nc21 | > 100 µM | 45 µM | > 100 µM | > 100 µM | > 100 µM | > 100 µM | > 100 µM | > 100 µM | > 100 µM | – | – | – | – | –
c1csc(C[N+]23CN4CN(CN(C4)C2)C3)c1 | 46.6 µM | 47.5 µM | – | 35.9 µM | – | – | – | 67.3 µM | > 100 µM | – | – | > 100 | – | –
C=C(OC1C(C)=C2C(C1OC(=O)CCCCCCC)C(C)(OC(C)=O)CC(OC(=O)CCC)C1(O)C2OC(=O)C1(C)O)/C(C)=C/C (stereo not given) | – | 0.0273 µM | – | – | – | 3.29 µM | 6.51 µM | 8.64 µM | 3.16 µM | – | < 0.0001 µM | 16.4 | 1.84 | < 0.0001
O=C(N/N=C1/C(=O)c2c3ccccc3cc3cccc1c23)c1ccccc1 | 40.3 µM | > 78.1 µM | > 73.2 µM | > 100 µM | > 84.1 µM | > 57.4 µM | > 100 µM | > 100 µM | > 100 µM | – | – | – | – | –
CCN(CC)CCNC(=O)c1cn2c(ccc3sc4ccccc4c(=O)c32)n1 | 21.4 µM | 29.1 µM | 34.6 µM | 26.6 µM | 23.4 µM | 33.4 µM | 27.8 µM | 21.7 µM | 27.5 µM | – | – | – | – | –
COc1ccc(OC)c(NS(=O)(=O)c2ccc3nc(C)n(NS(=O)(=O)c4cc(OC)ccc4OC)c(=O)c3c2)c1 | > 100 µM | > 100 µM | > 100 µM | > 100 µM | > 100 µM | > 100 µM | > 100 µM | > 100 µM | > 100 µM | – | – | – | – | –
CCOC(=O)CC1(c2cccc3ccccc23)OC(=O)c2ccccc21 (stereo not given) | – | > 100 µM | – | – | – | > 100 µM | – | > 100 µM | > 100 µM | – | – | > 100 | – | –
CCCCCCCCCCCCOCCCOP(=O)([O-])OCC[N+](C)(C)C | > 100 µM | > 83.9 µM | 57.7 µM | > 73.5 µM | 9.73 µM | 83.6 µM | > 100 µM | > 100 µM | 46.9 µM | – | – | > 95.8 | > 100 | –

Reference: PubChem BioAssay (NCI)
